Experimental data taken from US9340590B2 (priority 2011, dated 2016).
Read-outs that look alike come from different tables or passages of the source. Positions of bridges follow the written chain, without caps; N, C: chain ends. Residues, ends and D or L forms follow the SMILES beside them.

Legend:
Experiment in all cases: cell-based
[1] = molecular target: hNav1.3 (Homo sapiens, UniProt Q9NY46); settings: IonWorks Quattro, read-out: IWQ Use Nav1.3
[2] = molecular target: hNav1.7 (Homo sapiens, UniProt Q15858); assay type: cell-based
hNav1.7, sequence (Q15858 whole entry, looked up): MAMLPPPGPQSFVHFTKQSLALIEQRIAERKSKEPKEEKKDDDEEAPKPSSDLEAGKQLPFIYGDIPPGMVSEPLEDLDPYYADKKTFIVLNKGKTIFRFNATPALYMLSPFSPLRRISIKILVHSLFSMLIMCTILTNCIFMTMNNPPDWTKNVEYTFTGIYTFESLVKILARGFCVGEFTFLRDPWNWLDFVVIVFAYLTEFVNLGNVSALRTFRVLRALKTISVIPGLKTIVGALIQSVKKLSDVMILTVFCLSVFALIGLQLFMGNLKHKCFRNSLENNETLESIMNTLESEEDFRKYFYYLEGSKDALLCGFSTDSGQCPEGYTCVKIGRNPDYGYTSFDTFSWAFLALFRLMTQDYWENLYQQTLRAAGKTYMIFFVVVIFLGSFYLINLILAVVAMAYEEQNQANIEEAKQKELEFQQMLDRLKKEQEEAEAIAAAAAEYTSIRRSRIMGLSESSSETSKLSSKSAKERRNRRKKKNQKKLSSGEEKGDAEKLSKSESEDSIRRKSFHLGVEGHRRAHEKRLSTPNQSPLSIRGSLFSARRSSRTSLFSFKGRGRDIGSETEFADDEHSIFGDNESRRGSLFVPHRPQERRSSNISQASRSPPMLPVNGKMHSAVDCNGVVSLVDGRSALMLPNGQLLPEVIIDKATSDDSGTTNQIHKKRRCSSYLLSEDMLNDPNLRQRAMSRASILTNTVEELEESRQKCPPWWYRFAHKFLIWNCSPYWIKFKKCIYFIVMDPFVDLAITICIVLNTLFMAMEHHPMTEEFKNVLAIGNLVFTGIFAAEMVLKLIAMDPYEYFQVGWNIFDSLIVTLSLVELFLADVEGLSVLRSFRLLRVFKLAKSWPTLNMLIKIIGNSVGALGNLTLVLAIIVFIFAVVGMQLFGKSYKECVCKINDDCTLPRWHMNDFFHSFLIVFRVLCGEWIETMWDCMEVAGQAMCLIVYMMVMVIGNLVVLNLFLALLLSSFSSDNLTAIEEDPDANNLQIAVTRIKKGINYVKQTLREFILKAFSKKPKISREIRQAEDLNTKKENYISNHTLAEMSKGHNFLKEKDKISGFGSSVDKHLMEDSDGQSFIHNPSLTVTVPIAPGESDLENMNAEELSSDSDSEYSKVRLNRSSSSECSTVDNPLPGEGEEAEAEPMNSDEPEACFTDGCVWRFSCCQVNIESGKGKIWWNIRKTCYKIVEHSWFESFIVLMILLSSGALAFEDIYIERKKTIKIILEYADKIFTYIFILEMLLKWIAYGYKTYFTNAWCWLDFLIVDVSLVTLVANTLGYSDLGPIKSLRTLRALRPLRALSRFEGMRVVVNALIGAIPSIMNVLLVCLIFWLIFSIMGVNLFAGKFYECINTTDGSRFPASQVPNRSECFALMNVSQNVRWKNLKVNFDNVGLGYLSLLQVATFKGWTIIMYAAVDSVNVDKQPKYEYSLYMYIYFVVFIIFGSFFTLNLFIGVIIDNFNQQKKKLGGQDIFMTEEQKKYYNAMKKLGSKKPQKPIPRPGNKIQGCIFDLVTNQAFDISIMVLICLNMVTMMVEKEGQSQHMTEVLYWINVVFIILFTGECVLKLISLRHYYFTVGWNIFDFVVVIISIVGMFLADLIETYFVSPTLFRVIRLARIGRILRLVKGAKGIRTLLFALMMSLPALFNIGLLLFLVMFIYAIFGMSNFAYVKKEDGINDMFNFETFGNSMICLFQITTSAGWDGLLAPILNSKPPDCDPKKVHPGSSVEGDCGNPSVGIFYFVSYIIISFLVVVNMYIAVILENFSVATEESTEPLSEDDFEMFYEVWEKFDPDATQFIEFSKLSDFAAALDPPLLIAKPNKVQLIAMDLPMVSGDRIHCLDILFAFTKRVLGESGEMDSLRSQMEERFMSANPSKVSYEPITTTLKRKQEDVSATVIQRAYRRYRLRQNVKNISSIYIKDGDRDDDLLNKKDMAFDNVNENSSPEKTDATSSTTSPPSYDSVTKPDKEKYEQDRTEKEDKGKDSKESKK

[3] = molecular target: hNav1.5 (Homo sapiens, UniProt Q14524); settings: IonWorks Quattro, read-out: IWQ Use Nav1.5
[4] = IonWorks Quattro, use-dependent block, hNav1.7, read-out: IWQ Use Nav1.7
[5] = IonWorks Quattro, Use, read-out: IWQ Use Nav1.7

hNav1.3, sequence (Q9NY46 whole entry, looked up): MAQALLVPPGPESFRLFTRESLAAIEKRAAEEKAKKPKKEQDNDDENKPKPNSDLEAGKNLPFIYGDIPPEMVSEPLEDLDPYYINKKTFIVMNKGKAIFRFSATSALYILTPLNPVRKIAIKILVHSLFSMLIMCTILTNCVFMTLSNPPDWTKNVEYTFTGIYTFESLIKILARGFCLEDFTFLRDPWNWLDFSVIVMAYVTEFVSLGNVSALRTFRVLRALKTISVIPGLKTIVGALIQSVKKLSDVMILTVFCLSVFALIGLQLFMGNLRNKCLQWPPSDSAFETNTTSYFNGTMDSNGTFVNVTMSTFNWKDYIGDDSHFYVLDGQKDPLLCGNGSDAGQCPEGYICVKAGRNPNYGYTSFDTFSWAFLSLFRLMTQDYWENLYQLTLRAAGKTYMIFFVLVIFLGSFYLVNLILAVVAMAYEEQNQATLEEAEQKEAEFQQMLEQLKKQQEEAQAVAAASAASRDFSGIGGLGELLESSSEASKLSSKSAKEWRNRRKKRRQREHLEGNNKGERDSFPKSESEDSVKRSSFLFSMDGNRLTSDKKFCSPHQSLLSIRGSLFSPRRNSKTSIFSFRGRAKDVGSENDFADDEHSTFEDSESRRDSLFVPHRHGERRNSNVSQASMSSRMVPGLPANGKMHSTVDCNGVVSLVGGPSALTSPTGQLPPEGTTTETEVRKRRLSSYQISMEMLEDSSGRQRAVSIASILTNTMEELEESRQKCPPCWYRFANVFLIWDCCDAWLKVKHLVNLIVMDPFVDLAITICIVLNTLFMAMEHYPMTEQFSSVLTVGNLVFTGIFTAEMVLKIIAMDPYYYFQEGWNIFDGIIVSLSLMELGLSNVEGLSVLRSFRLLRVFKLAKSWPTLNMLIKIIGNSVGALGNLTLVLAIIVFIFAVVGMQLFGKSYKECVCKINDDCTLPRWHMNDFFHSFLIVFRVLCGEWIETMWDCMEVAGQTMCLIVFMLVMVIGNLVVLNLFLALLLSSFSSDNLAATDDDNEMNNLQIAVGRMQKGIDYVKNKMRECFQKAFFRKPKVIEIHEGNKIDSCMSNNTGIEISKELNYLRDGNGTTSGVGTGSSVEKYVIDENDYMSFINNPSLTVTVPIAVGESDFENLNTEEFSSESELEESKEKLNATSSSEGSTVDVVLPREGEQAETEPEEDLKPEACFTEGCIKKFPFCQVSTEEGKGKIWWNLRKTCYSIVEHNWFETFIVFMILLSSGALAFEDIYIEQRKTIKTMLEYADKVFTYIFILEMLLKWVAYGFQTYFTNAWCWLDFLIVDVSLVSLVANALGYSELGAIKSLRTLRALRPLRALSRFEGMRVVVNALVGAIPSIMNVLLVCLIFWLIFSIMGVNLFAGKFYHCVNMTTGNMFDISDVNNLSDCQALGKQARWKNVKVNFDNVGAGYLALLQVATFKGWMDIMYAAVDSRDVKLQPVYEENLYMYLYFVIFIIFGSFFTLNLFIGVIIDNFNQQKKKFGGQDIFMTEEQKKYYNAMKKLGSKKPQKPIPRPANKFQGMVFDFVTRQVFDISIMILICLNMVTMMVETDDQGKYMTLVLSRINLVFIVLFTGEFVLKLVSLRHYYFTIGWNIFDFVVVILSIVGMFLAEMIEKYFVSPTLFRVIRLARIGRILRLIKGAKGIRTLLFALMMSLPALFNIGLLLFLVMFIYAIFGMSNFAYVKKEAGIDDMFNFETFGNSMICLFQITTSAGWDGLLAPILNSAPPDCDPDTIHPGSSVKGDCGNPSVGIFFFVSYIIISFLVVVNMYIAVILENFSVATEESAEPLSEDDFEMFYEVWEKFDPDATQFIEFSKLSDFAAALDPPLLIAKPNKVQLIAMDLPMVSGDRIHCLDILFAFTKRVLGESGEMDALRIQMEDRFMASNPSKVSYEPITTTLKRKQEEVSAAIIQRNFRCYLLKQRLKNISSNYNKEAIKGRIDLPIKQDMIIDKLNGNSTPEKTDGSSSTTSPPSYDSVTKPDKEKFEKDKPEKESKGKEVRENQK

SMILES | IC50 ([1]; use-dependent block, hNav1.3) [nM] | IC50 [2, 4] [nM] | IC50 ([3]; use-dependent block, hNav1.5) [nM] | IC50 ([1]; Use) [nM] | IC50 [2, 5] [nM] | IC50 ([3]; Use) [nM] | IC50 [2] [nM]
CC[C@H](C)[C@@H]1NC(=O)[C@@H]2CSSC[C@@H]3NC(=O)[C@H](C(C)C)NC(=O)[C@H](CC(C)C)NC(=O)[C@H](CC(N)=O)NC(=O)[C@@H]4CCCN4C(=O)[C@H](CCCNC(=N)N)NC(=O)[C@H](CSSC[C@H](NC(=O)[C@@H](N)CC(=O)O)C(=O)N[C@@H](CC(C)C)C(=O)NCC(=O)N[C@@H](Cc4ccccc4)C(=O)N[C@@H](CCSC)C(=O)N[C@@H](CCCNC(=N)N)C(=O)N[C@@H](C)C(=O)N2)NC(=O)[C@H](CSSC[C@@H](C(=O)N[C@@H](CCCCN)C(=O)N[C@@H](Cc2ccc(O)cc2)C(=O)N[C@H](C(=O)N[C@@H](Cc2ccccc2)C(N)=O)C(C)C)NC(=O)[C@H](Cc2c[nH]c4ccccc24)NC(=O)[C@H](CCCCN)NC(=O)[C@H](Cc2cnc[nH]2)NC(=O)[C@H]([C@@H](C)O)NC(=O)[C@H](CCCNC(=N)N)NC(=O)[C@H](CO)NC3=O)NC(=O)[C@H](CCCCN)NC(=O)[C@H](CC(=O)O)NC(=O)[C@H](CC(N)=O)NC(=O)[C@H](CC(=O)O)NC(=O)[C@@H]2CCCN2C1=O [[Ala8]GpTx-1(1-34)] (H-DCLGFMRACIPDNDKCCRPNLVCSRTHKWCKYVF-NH2; disulfide 2-17, 9-23, 16-30) | 410 | 490 | 16800 |  |  |  | 
CC[C@H](C)[C@@H]1NC(=O)[C@@H]2CSSC[C@@H]3NC(=O)[C@H](C(C)C)NC(=O)[C@H](CC(C)C)NC(=O)[C@H](CC(N)=O)NC(=O)[C@@H]4CCCN4C(=O)[C@H](CCCNC(=N)N)NC(=O)[C@H](CSSC[C@H](NC(=O)[C@@H](N)CC(=O)O)C(=O)N[C@@H](CC(C)C)C(=O)NCC(=O)N[C@@H](Cc4ccccc4)C(=O)N[C@@H](CCSC)C(=O)N[C@@H](CCCNC(=N)N)C(=O)N[C@@H](CCCNC(=N)N)C(=O)N2)NC(=O)[C@H](CSSC[C@@H](C(=O)N[C@@H](CCCCN)C(=O)N[C@@H](Cc2ccc(O)cc2)C(=O)N[C@H](C(=O)N[C@@H](Cc2ccccc2)C(N)=O)C(C)C)NC(=O)[C@H](Cc2c[nH]c4ccccc24)NC(=O)[C@H](CCCCN)NC(=O)[C@H](Cc2cnc[nH]2)NC(=O)[C@H]([C@@H](C)O)NC(=O)[C@H](CCCNC(=N)N)NC(=O)[C@H](CO)NC3=O)NC(=O)[C@H](CCCCN)NC(=O)[C@H](CC(=O)O)NC(=O)[C@H](CC(N)=O)NC(=O)[C@H](CC(=O)O)NC(=O)[C@@H]2CCCN2C1=O [[Arg8]GpTx-1(1-34)] (H-DCLGFMRRCIPDNDKCCRPNLVCSRTHKWCKYVF-NH2; disulfide 2-17, 9-23, 16-30) | 120 | 140 | 13800 |  |  |  | 
CC[C@H](C)[C@@H]1NC(=O)[C@@H]2CSSC[C@@H]3NC(=O)[C@H](C(C)C)NC(=O)[C@H](CC(C)C)NC(=O)[C@H](CC(N)=O)NC(=O)[C@@H]4CCCN4C(=O)[C@H](CCCNC(=N)N)NC(=O)[C@H](CSSC[C@H](NC(=O)[C@@H](N)CC(=O)O)C(=O)N[C@@H](CC(C)C)C(=O)NCC(=O)N[C@@H](Cc4ccccc4)C(=O)N[C@@H](CCSC)C(=O)N[C@@H](CCCNC(N)=O)C(=O)N[C@@H](CCCCN)C(=O)N2)NC(=O)[C@H](CSSC[C@@H](C(=O)N[C@@H](CCCCN)C(=O)N[C@@H](Cc2ccc(O)cc2)C(=O)N[C@H](C(=O)N[C@@H](Cc2ccccc2)C(N)=O)C(C)C)NC(=O)[C@H](Cc2c[nH]c4ccccc24)NC(=O)[C@H](CCCCN)NC(=O)[C@H](Cc2c[nH]cn2)NC(=O)[C@H]([C@@H](C)O)NC(=O)[C@H](CCCNC(=N)N)NC(=O)[C@H](CO)NC3=O)NC(=O)[C@H](CCCCN)NC(=O)[C@H](CC(=O)O)NC(=O)[C@H](CC(N)=O)NC(=O)[C@H](CC(=O)O)NC(=O)[C@@H]2CCCN2C1=O [[Cit7]GpTx-1(1-34)] | 560 | 630 | 14400 |  |  |  | 
CC[C@H](C)[C@@H]1NC(=O)[C@@H]2CSSC[C@@H]3NC(=O)[C@H](C(C)C)NC(=O)[C@H](CC(C)C)NC(=O)[C@H](CC(N)=O)NC(=O)[C@@H]4CCCN4C(=O)[C@H](CCCNC(=N)N)NC(=O)[C@H](CSSC[C@H](NC(=O)[C@@H](N)CC(=O)O)C(=O)N[C@@H](CC(C)C)C(=O)NCC(=O)N[C@@H](Cc4ccccc4)C(=O)N[C@@H](CCSC)C(=O)N[C@@H](CCCCN)C(=O)N[C@@H](CCCCN)C(=O)N2)NC(=O)[C@H](CSSC[C@@H](C(=O)N[C@@H](CCCCN)C(=O)N[C@@H](Cc2ccc(O)cc2)C(=O)N[C@H](C(=O)N[C@@H](Cc2ccccc2)C(N)=O)C(C)C)NC(=O)[C@H](Cc2c[nH]c4ccccc24)NC(=O)[C@H](CCCCN)NC(=O)[C@H](Cc2c[nH]cn2)NC(=O)[C@H]([C@@H](C)O)NC(=O)[C@H](CCCNC(=N)N)NC(=O)[C@H](CO)NC3=O)NC(=O)[C@H](CCCCN)NC(=O)[C@H](CC(=O)O)NC(=O)[C@H](CC(N)=O)NC(=O)[C@H](CC(=O)O)NC(=O)[C@@H]2CCCN2C1=O [[Lys7]GpTx-1(1-34)] (H-DCLGFMKKCIPDNDKCCRPNLVCSRTHKWCKYVF-NH2; disulfide 2-17, 9-23, 16-30) | 470 | 530 | 23300 |  |  |  | 
CC[C@H](C)[C@@H]1NC(=O)[C@@H]2CSSC[C@@H]3NC(=O)[C@H](C(C)C)NC(=O)[C@H](CC(C)C)NC(=O)[C@H](CC(N)=O)NC(=O)[C@@H]4CCCN4C(=O)[C@H](CCCNC(=N)N)NC(=O)[C@H](CSSC[C@H](NC(=O)[C@@H](N)CC(=O)O)C(=O)N[C@@H](CC(C)C)C(=O)NCC(=O)N[C@@H](Cc4ccccc4)C(=O)N[C@@H](CCSC)C(=O)N[C@@H](CCCNC(=N)N)C(=O)N[C@@H](CCCCN)C(=O)N2)NC(=O)[C@H](CSSC[C@@H](C(=O)N[C@@H](CCCCN)C(=O)N[C@@H](Cc2ccc(O)cc2)C(=O)N[C@H](C(=O)N[C@@H](Cc2ccccc2)C(N)=O)C(C)C)NC(=O)[C@H](Cc2c[nH]c4ccccc24)NC(=O)[C@H](CCCCN)NC(=O)[C@H](Cc2cnc[nH]2)NC(=O)[C@H]([C@@H](C)O)NC(=O)[C@H](CCCNC(=N)N)NC(=O)[C@H](CO)NC3=O)NC(=O)[C@H](CCCCN)NC(=O)[C@H](CC(=O)O)NC(=O)[C@H](C)NC(=O)[C@H](CC(=O)O)NC(=O)[C@@H]2CCCN2C1=O [compound 5] (H-DCLGFMRKCIPDADKCCRPNLVCSRTHKWCKYVF-NH2; disulfide 2-17, 9-23, 16-30) |  |  |  | 160 | 170 | 8150 | 
CC[C@H](C)[C@@H]1NC(=O)[C@@H]2CSSC[C@@H]3NC(=O)[C@H](C(C)C)NC(=O)[C@H](CC(C)C)NC(=O)[C@H](CC(N)=O)NC(=O)[C@@H]4CCCN4C(=O)[C@H](CCCNC(=N)N)NC(=O)[C@H](CSSC[C@H](NC(=O)[C@@H](N)CC(=O)O)C(=O)N[C@@H](CC(C)C)C(=O)NCC(=O)N[C@@H](Cc4ccccc4)C(=O)N[C@@H](CCSC)C(=O)N[C@@H](CCCNC(=N)N)C(=O)N[C@@H](CCCCN)C(=O)N2)NC(=O)[C@H](CSSC[C@@H](C(=O)N[C@@H](CCCCN)C(=O)N[C@@H](Cc2ccc(O)cc2)C(=O)N[C@H](C(=O)N[C@@H](Cc2ccccc2)C(N)=O)C(C)C)NC(=O)[C@H](Cc2c[nH]c4ccccc24)NC(=O)[C@H](CCCCN)NC(=O)[C@H](Cc2cnc[nH]2)NC(=O)[C@H]([C@@H](C)O)NC(=O)[C@H](CCCNC(=N)N)NC(=O)[C@H](CO)NC3=O)NC(=O)[C@H](C)NC(=O)[C@H](CC(=O)O)NC(=O)[C@H](CC(N)=O)NC(=O)[C@H](CC(=O)O)NC(=O)[C@@H]2CCCN2C1=O [compound 6] (H-DCLGFMRKCIPDNDACCRPNLVCSRTHKWCKYVF-NH2; disulfide 2-17, 9-23, 16-30) |  |  |  | 190 | 220 | 9640 | 
CC[C@H](C)[C@@H]1NC(=O)[C@@H]2CSSC[C@@H]3NC(=O)[C@H](C(C)C)NC(=O)[C@H](CC(C)C)NC(=O)[C@H](CC(N)=O)NC(=O)[C@@H]4CCCN4C(=O)[C@H](CCCNC(=N)N)NC(=O)[C@H](CSSC[C@H](NC(=O)[C@@H](N)CC(=O)O)C(=O)N[C@@H](CC(C)C)C(=O)NCC(=O)N[C@@H](Cc4ccccc4)C(=O)N[C@@H](CCSC)C(=O)N[C@@H](CCCNC(=N)N)C(=O)N[C@@H](CCCCN)C(=O)N2)NC(=O)[C@H](CSSC[C@@H](C(=O)N[C@@H](CCCCN)C(=O)N[C@@H](Cc2ccc(O)cc2)C(=O)N[C@H](C(=O)N[C@@H](Cc2ccccc2)C(N)=O)C(C)C)NC(=O)[C@H](Cc2c[nH]c4ccccc24)NC(=O)[C@H](CCCCN)NC(=O)[C@H](Cc2cnc[nH]2)NC(=O)[C@H]([C@@H](C)O)NC(=O)[C@H](C)NC(=O)[C@H](CO)NC3=O)NC(=O)[C@H](CCCCN)NC(=O)[C@H](CC(=O)O)NC(=O)[C@H](CC(N)=O)NC(=O)[C@H](CC(=O)O)NC(=O)[C@@H]2CCCN2C1=O [compound 9] (H-DCLGFMRKCIPDNDKCCRPNLVCSATHKWCKYVF-NH2; disulfide 2-17, 9-23, 16-30) |  |  |  | 840 |  | 18800 | 300
